In brackets after ≈: the same amount, converted by molar mass.

Holding throughout (format): cell-based
In one assay the test system is Staphylococcus aureus. Nature of the assay: MIC by agar dilution, maxillary sinus isolates. Particulars: S. aureus (n = 31). Here is the method:
(§1) Test strains were obtained from recent maxillary sinus aspiration. Identification of organisms was by standard methods (see, for example, Murray, P. R., et al. Manual of Clinical Microbiology. 6th ed. American Society of Microbiology 1995: 282-620).
(§2) Antimicrobial activity was tested against 250 selected isolates (Table 1).
(§3) The agar dilution method using replicate plating of the organisms onto a series of agar plates of increasing concentrations was used (see, for example, National Committee for Clinical Laboratory Standards. Methods for antimicrobial susceptibility tests for bacteria that growth aerobically. Approved standards M 7-A4. National Committee for Laboratory Standards, Villanova, Pa., 1997).
(§4) MICs were determined by using doubling dilutions of between 0.02-256 mg/L with an inoculum of 10^4 CFU in area of 5-8 mm.
(§5) Haemophilus Test Medium was used for Haemophilus spp. and Wilkins-Chalgren agar was used for anaerobes.

For assay [1], the system named is Haemophilus parainfluenzae. Nature of the assay: MIC by agar dilution, maxillary sinus isolates. Particulars: H. parainfluenzae (n = 10); for MIC: 24 h. Here is the method: as §1, §2, §3, §4, §5
Background: In agar dilution the substance is mixed into plates at graded concentrations.

A further assay concerns Streptococcus pneumoniae. As to the kind of experiment: MIC by agar dilution, maxillary sinus isolates. As to conditions: S. pneumoniae (n = 85); for MIC / MIC50 / MIC90: Streptococcus pneumoniae; for MIC: 24 h. Here is the method:
as §1, §2, §3, §4, §5

Assay [2] in a line: MIC by agar dilution, maxillary sinus isolates. As to conditions: Streptococcus spp.: 5 Enterobacteriaceae, 6 non-fermentative Gram negative bacilli, 2 Neisseria meningitidis, 2 beta-haemolytic Streptococcus. Here is the method: as §1, §2, §3, §4, §5
The next assay concerns Moraxella catarrhalis. As to the kind of experiment: MIC by agar dilution, maxillary sinus isolates. As to conditions: M. catarrhalis (n = 45); for MIC / MIC50 / MIC90: Moraxella catarrhalis; for MIC: 24 h. The procedure:
as §1, §2, §3, §4, §5

The test system of the next assay is Haemophilus influenzae. Nature of the assay: MIC by agar dilution, maxillary sinus isolates. Particulars: H. influenzae (n = 45); for MIC / MIC50 / MIC90: Haemophilus influenzae; for MIC: 24 h. The procedure: as §1, §2, §3, §4, §5
A further assay has as its system Anaerobic strains. Nature of the assay: MIC by agar dilution, maxillary sinus isolates. As to conditions: for MIC: 24 h, Anaerobic strains (n = 22): 12 Bacteroides spp., 7 Peptostreptococcus spp., 3 Bacteroides urealyticus. Here is the method:
as §1, §2, §3, §4, §5

For a further assay, the system named is Streptococcus spp. Nature of the assay: MIC by agar dilution, maxillary sinus isolates. As to conditions: Streptococcus spp. (various other strains, 15). Here is the method:
as §1, §2, §3, §4, §5

`CO/N=C1\CN(c2nc3c(cc2F)c(=O)c(C(=O)O)cn3C2CC2)CC1CN` (racemic) [Gemifloxacin, (R,S)-7-(3-aminomethyl-4-methoxyiminopyrrolidin-1-yl)-1-cyclopropyl-6-fluoro-4-oxo-1,4-dihydro-1,8-naphthyridine-3-carboxylic acid]: the entries for the “MIC Range” value (with Staphylococcus aureus; in assay [2]) were 0.03 to 1 µg/mL and “≦0.02-0.5 mg/L”, respectively. For the same compound, the MIC in assay [1] lay within 0.02 to 0.12 µg/mL (≈ 0.0514 to 0.308 µM); in the assay on Streptococcus pneumoniae, 0.02 to 0.06 µg/mL (≈ 0.0514 to 0.154 µM); against Moraxella catarrhalis, 0.02 to 0.03 µg/mL (≈ 0.0514 to 0.077 µM); in the assay on Haemophilus influenzae it was 0.02 to 0.03 µg/mL (≈ 0.0514 to 0.077 µM); in the assay on Anaerobic strains it was 0.03 to 0.25 µg/mL (≈ 0.077 to 0.642 µM). In addition, the “MIC 90%” value against Moraxella catarrhalis and in the assay on Haemophilus influenzae was “≦0.02 mg/L” throughout. In addition, the MIC50 with Moraxella catarrhalis and in the assay with Haemophilus influenzae was not above 0.02 µg/mL throughout. In addition, the MIC90 with Moraxella catarrhalis and in the assay on Haemophilus influenzae was not above 0.02 µg/mL throughout.
On to `CC1(C)S[C@@H]2[C@H](NC(=O)[C@H](N)c3ccc(O)cc3)C(=O)N2[C@H]1C(=O)O` [Amoxycillin], for which the “MIC 90%” value in the assay on Staphylococcus aureus was found to be 1 µg/mL (≈ 2.74 µM). Also, the “MIC Range” value with Staphylococcus aureus fell in the range of 0.06 to 2 µg/mL. The MIC90 is not below 1 µg/mL with Staphylococcus aureus (Staphylococcus aureus); 1 µg/mL (≈ 2.74 µM) in assay [1]; 0.03 µg/mL (≈ 0.0821 µM) in the assay with Streptococcus pneumoniae; 4 µg/mL (≈ 10.9 µM) in the assay with Streptococcus spp.; 2 µg/mL (≈ 5.47 µM) in the assay on Haemophilus influenzae. The MIC lay in the range of 0.03 to 1 µg/mL (≈ 0.0821 to 2.74 µM) in assay [1], 0.02 to 1 µg/mL (≈ 0.0547 to 2.74 µM) against Streptococcus pneumoniae and 0.02 to 16 µg/mL (≈ 0.0547 to 43.8 µM) in the assay on Moraxella catarrhalis. Also, the MIC50 in assay [1] was found to be 0.06 µg/mL (≈ 0.164 µM); in the assay with Streptococcus pneumoniae, 0.03 µg/mL (≈ 0.0821 µM); in the assay on Streptococcus spp., 2 µg/mL (≈ 5.47 µM); with Haemophilus influenzae it was 0.25 µg/mL (≈ 0.684 µM); against Anaerobic strains (Anaerobic strains (n = 22)), 0.25 µg/mL (≈ 0.684 µM).
For the compound `Cc1c(F)c(N2CCNC(C)C2)cc2c1c(=O)c(C(=O)O)cn2C1CC1` (centres unmarked) [Grepafloxacin], the entries for the “MIC Range” value (in the assay on Staphylococcus aureus; in assay [2]) were 0.06 to 0.25 µg/mL and “≦0.02-1 mg/L”, respectively. Also, the MIC50 with Staphylococcus aureus (Staphylococcus aureus) was 0.12 µg/mL (≈ 0.334 µM); against Streptococcus pneumoniae it was 0.25 µg/mL (≈ 0.696 µM); against Moraxella catarrhalis, not above 0.02 µg/mL; against Haemophilus influenzae, not above 0.02 µg/mL; in the assay on Anaerobic strains (Anaerobic strains (n = 22)), 0.25 µg/mL (≈ 0.696 µM). Moreover, the MIC in assay [1] is 0.02 to 0.12 µg/mL (≈ 0.0556 to 0.334 µM); with Streptococcus pneumoniae, 0.03 to 0.5 µg/mL (≈ 0.0835 to 1.39 µM); against Moraxella catarrhalis it was 0.02 to 0.25 µg/mL (≈ 0.0556 to 0.696 µM); with Haemophilus influenzae, 0.02 to 0.03 µg/mL (≈ 0.0556 to 0.0835 µM); in the assay with Anaerobic strains, 0.25 to 8 µg/mL (≈ 0.696 to 22.3 µM). Also, the MIC90 in assay [1] is 0.1 µg/mL (≈ 0.278 µM); in the assay on Streptococcus pneumoniae it was not below 0.25 µg/mL; with Moraxella catarrhalis it was not above 0.02 µg/mL; in the assay with Haemophilus influenzae, not above 0.02 µg/mL; against Anaerobic strains (Anaerobic strains (n = 22)), 8 µg/mL (≈ 22.3 µM). Moreover, the “MIC 90%” value against Streptococcus pneumoniae is 0.25 µg/mL (≈ 0.696 µM); against Moraxella catarrhalis it was “≦0.02 mg/L”; against Haemophilus influenzae it was “≦0.02 mg/L”.
For `C[C@H]1COc2c(N3CCN(C)CC3)c(F)cc3c(=O)c(C(=O)O)cn1c23` [Levofloxacin], the “MIC Range” value is 0.12 to 0.5 µg/mL against Staphylococcus aureus and 0.03 to 0.25 µg/mL in assay [2]. The MIC in assay [1] fell in the range of 0.03 to 0.25 µg/mL (≈ 0.083 to 0.692 µM); with Streptococcus pneumoniae, 0.12 to 2 µg/mL (≈ 0.332 to 5.53 µM); in the assay with Moraxella catarrhalis, 0.02 to 0.12 µg/mL (≈ 0.0553 to 0.332 µM); in the assay on Haemophilus influenzae, 0.02 to 0.03 µg/mL (≈ 0.0553 to 0.083 µM); in the assay with Anaerobic strains it was 0.12 to 1 µg/mL (≈ 0.332 to 2.77 µM). Also, in the assay on Streptococcus pneumoniae, the “MIC 90%” value stood at 1 µg/mL (≈ 2.77 µM). The same compound came in with an MIC50 in the assay with Streptococcus spp. of 0.12 µg/mL (≈ 0.332 µM).
Regarding `COc1c(N2C[C@@H]3CCCN[C@@H]3C2)c(F)cc2c(=O)c(C(=O)O)cn(C3CC3)c12` [Moxifloxacin], the “MIC Range” value in the assay with Staphylococcus aureus lay within 0.03 to 0.12 µg/mL. For the same compound, the “MIC Range” value in assay [2] was “≦0.02-0.5 mg/L”. In the assay on Haemophilus influenzae, the MIC was in the range of 0.02 to 0.12 µg/mL (≈ 0.0498 to 0.299 µM) and the MIC50 was 0.13 µg/mL (≈ 0.324 µM).
As for `CC1COc2c(N3CCN(C)CC3)c(F)cc3c(=O)c(C(=O)O)cn1c23` (centres unmarked) [Ofloxacin], the “MIC Range” value was in the range of 0.25 to 1 µg/mL against Staphylococcus aureus and 0.06 to 0.5 µg/mL in assay [2]. Moreover, the MIC50 in the assay on Staphylococcus aureus (Staphylococcus aureus) and against Anaerobic strains (Anaerobic strains (n = 22)) was 0.5 µg/mL (≈ 1.38 µM) in each case. Besides, the “MIC 90%” value against Streptococcus pneumoniae worked out at 2 µg/mL (≈ 5.53 µM). The MIC in the assay with Streptococcus pneumoniae was 0.25 to 4 µg/mL (≈ 0.692 to 11.1 µM); against Moraxella catarrhalis, 0.02 to 0.25 µg/mL (≈ 0.0553 to 0.692 µM); in the assay on Haemophilus influenzae it was 0.02 to 0.06 µg/mL (≈ 0.0553 to 0.166 µM); with Anaerobic strains, 0.25 to 2 µg/mL (≈ 0.692 to 5.53 µM).
For the compound `C[C@@H]1CN(c2c(F)c(N)c3c(=O)c(C(=O)O)cn(C4CC4)c3c2F)C[C@H](C)N1` [Sparfloxacin], in the assay with Streptococcus pneumoniae, the “MIC 90%” value is 0.5 µg/mL (≈ 1.27 µM), the MIC is 0.03 to 0.5 µg/mL (≈ 0.0765 to 1.27 µM) and the MIC90 is not below 0.25 µg/mL. Besides, the “MIC Range” value in assay [2] is listed as “≦0.02-0.5 mg/L”. In addition, in the assay with Moraxella catarrhalis, the MIC lay in the range of 0.02 to 1 µg/mL (≈ 0.051 to 2.55 µM) and the MIC50 was not above 0.02 µg/mL. In the assay on Haemophilus influenzae, the MIC fell in the range of 0.03 to 1 µg/mL (≈ 0.0765 to 2.55 µM). In addition, in the assay on Anaerobic strains, the MIC was in the range of 0.25 to 16 µg/mL (≈ 0.637 to 40.8 µM).
Consider `N[C@@H]1[C@H]2CN(c3nc4c(cc3F)c(=O)c(C(=O)O)cn4-c3ccc(F)cc3F)C[C@@H]12` [Trovafloxacin], for which the “MIC 90%” value against Staphylococcus aureus turned out to be 0.03 µg/mL (≈ 0.0721 µM). Moreover, the MIC50 in the assay with Staphylococcus aureus (Staphylococcus aureus) is 0.03 µg/mL (≈ 0.0721 µM); in assay [1] it was 0.03 µg/mL (≈ 0.0721 µM); with Moraxella catarrhalis it was not above 0.02 µg/mL; against Haemophilus influenzae, not above 0.02 µg/mL. Further, the MIC is 0.02 to 0.12 µg/mL (≈ 0.048 to 0.288 µM) in assay [1]; 0.02 to 0.12 µg/mL (≈ 0.048 to 0.288 µM) in the assay with Streptococcus pneumoniae; 0.02 to 0.06 µg/mL (≈ 0.048 to 0.144 µM) against Moraxella catarrhalis; 0.02 to 0.06 µg/mL (≈ 0.048 to 0.144 µM) with Haemophilus influenzae; 0.06 to 4 µg/mL (≈ 0.144 to 9.61 µM) with Anaerobic strains. Besides, the “MIC Range” value in assay [2] was “≦0.02-0.5 mg/L”.

Values taken from patent US20050288300A1, “Methods of use fluoroquinolone compounds against maxillary sinus pathogenic bacteria” (LG Life Sciences Limited., priority 1999, published 2005).
